From publication PMC4117758 (2014)

How the values were obtained:
[1] = tested on: ssDNA1 (DNA, single strand) GAGCTCTCGAAAGAGCTCCGATTA; experiment: UV-vis absorption; settings: 150 mM KCl; 10 mM Tris-HCl pH 7.4, 1 mM Na2EDTA, 400 ml/l PEG 200; 20 μM DNA
[2] = tested on: Hum21 (DNA, G4) GGGTTAGGGTTAGGGTTAGGG; experiment: UV melting at 295 nm; settings: 50 mM KCl; 10 mM Tris-HCl pH 7.4, 1 mM Na2EDTA, no PEG; 5 μM compound, 5 μM DNA; derived from two Tm
[3] = tested on: Hum69 (DNA, G4) GGGTTAGGGTTAGGGTTAGGGTTAGGGTTAGGGTTAGGGTTAGGGTTAGGGTTAGGGTTAGGGTTAGGG; experiment: UV melting at 295 nm; settings: 50 mM KCl; 10 mM Tris-HCl pH 7.4, 1 mM Na2EDTA, no PEG; 5 μM compound, 5 μM DNA; derived from two Tm
[4] = tested on: Hum45 (DNA, G4) GGGTTAGGGTTAGGGTTAGGGTTAGGGTTAGGGTTAGGGTTAGGG; experiment: UV-vis absorption titration, Scatchard; settings: 150 mM KCl; 10 mM Tris-HCl pH 7.4, 1 mM Na2EDTA, 400 ml/l PEG 200; 3 μM compound; n = 0.46
[5] = tested on: LD (DNA, duplex) GCGCAATTGCGC; experiment: UV-vis absorption; settings: 150 mM KCl; 10 mM Tris-HCl pH 7.4, 1 mM Na2EDTA, 400 ml/l PEG 200; 20 μM DNA
[6] = tested on: Hum51 (DNA, G4) GGGTTAGGGTTAGGGTTAGGGTTAGGGTTAGGGTTAGGGTTAGGGTTAGGG; experiment: UV-vis absorption titration, Scatchard; settings: 150 mM KCl; 10 mM Tris-HCl pH 7.4, 1 mM Na2EDTA, 400 ml/l PEG 200; 3 μM compound; n = 0.50
[7] = tested on: Hum21 (DNA, G4) GGGTTAGGGTTAGGGTTAGGG; experiment: UV-vis absorption titration, Scatchard; settings: 150 mM KCl; 10 mM Tris-HCl pH 7.4, 1 mM Na2EDTA, 400 ml/l PEG 200; 3 μM compound; Ka undetected
[8] = tested on: Hum57 (DNA, G4) GGGTTAGGGTTAGGGTTAGGGTTAGGGTTAGGGTTAGGGTTAGGGTTAGGGTTAGGG; experiment: UV melting at 295 nm; settings: 50 mM KCl; 10 mM Tris-HCl pH 7.4, 1 mM Na2EDTA, no PEG; 5 μM compound, 5 μM DNA; derived from two Tm
[9] = tested on: M3Q (DNA, G4) GAGGGAGGGAGGGAGAGGGA; experiment: UV-vis absorption; settings: 150 mM KCl; 10 mM Tris-HCl pH 7.4, 1 mM Na2EDTA, 400 ml/l PEG 200; DNA up to 10:1 over compound
[10] = tested on: AT (DNA, duplex) ATATATATATAT; experiment: UV-vis absorption; settings: 150 mM KCl; 10 mM Tris-HCl pH 7.4, 1 mM Na2EDTA, 400 ml/l PEG 200; 20 μM DNA
[11] = tested on: Hum69 (DNA, G4) GGGTTAGGGTTAGGGTTAGGGTTAGGGTTAGGGTTAGGGTTAGGGTTAGGGTTAGGGTTAGGGTTAGGG; experiment: UV-vis absorption titration, Scatchard; settings: 150 mM KCl; 10 mM Tris-HCl pH 7.4, 1 mM Na2EDTA, 400 ml/l PEG 200; 3 μM compound; n = 0.52
[12] = tested on: Hum57 (DNA, G4) GGGTTAGGGTTAGGGTTAGGGTTAGGGTTAGGGTTAGGGTTAGGGTTAGGGTTAGGG; experiment: UV-vis absorption titration, Scatchard; settings: 150 mM KCl; 10 mM Tris-HCl pH 7.4, 1 mM Na2EDTA, 400 ml/l PEG 200; 3 μM compound; n = 0.48
[13] = tested on: GC (DNA, duplex) GCGCGCGCGCGC; experiment: UV-vis absorption; settings: 150 mM KCl; 10 mM Tris-HCl pH 7.4, 1 mM Na2EDTA, 400 ml/l PEG 200; 20 μM DNA
[14] = tested on: KRAS (DNA, G4) AGGGCGGTGGGAAGAGGGAAGAGGGGGAGG; experiment: UV-vis absorption; settings: 150 mM KCl; 10 mM Tris-HCl pH 7.4, 1 mM Na2EDTA, 400 ml/l PEG 200; DNA up to 10:1 over compound
[15] = tested on: Hum51-M1 (DNA, G4) GGGTTAGGGTTAGGGTTAGGGTTAGGGTTAGGGTTAGGGTTAGGGTGTGAG; experiment: UV-vis absorption titration, Scatchard; settings: 150 mM KCl; 10 mM Tris-HCl pH 7.4, 1 mM Na2EDTA, 400 ml/l PEG 200; 3 μM compound; n = 0.45
[16] = tested on: Hum63-M1 (DNA, G4) GGGTTAGGGTTAGGGTTAGGGTTAGGGTTAGGGTTAGGGTTAGGGTGTGAGTGTGAGTGTGAG; experiment: UV-vis absorption titration, Scatchard; settings: 150 mM KCl; 10 mM Tris-HCl pH 7.4, 1 mM Na2EDTA, 400 ml/l PEG 200; 3 μM compound; n = 0.46
[17] = tested on: Hum51 (DNA, G4) GGGTTAGGGTTAGGGTTAGGGTTAGGGTTAGGGTTAGGGTTAGGGTTAGGG; experiment: UV melting at 295 nm; settings: 50 mM KCl; 10 mM Tris-HCl pH 7.4, 1 mM Na2EDTA, no PEG; 5 μM compound, 5 μM DNA; derived from two Tm
[18] = tested on: Hum57-M3 (DNA, G4) GGGTTAGGGTTAGGGTTAGGGTTGAGTGTGAGTGTAGGGTTAGGGTTAGGGTTAGGG; experiment: UV-vis absorption titration, Scatchard; settings: 150 mM KCl; 10 mM Tris-HCl pH 7.4, 1 mM Na2EDTA, 400 ml/l PEG 200; 3 μM compound; n = 0.50
[19] = tested on: Hum63-M2 (DNA, G4) GGGTTAGGGTTAGGGTTAGGGTTGAGTGTAGGGTTAGGGTTAGGGTTAGGGTGTGAGTGTGAG; experiment: UV-vis absorption titration, Scatchard; settings: 150 mM KCl; 10 mM Tris-HCl pH 7.4, 1 mM Na2EDTA, 400 ml/l PEG 200; 3 μM compound; n = 0.50
[20] = tested on: Hum45 (DNA, G4) GGGTTAGGGTTAGGGTTAGGGTTAGGGTTAGGGTTAGGGTTAGGG; experiment: UV melting at 295 nm; settings: 50 mM KCl; 10 mM Tris-HCl pH 7.4, 1 mM Na2EDTA, no PEG; 5 μM compound, 5 μM DNA; derived from two Tm
[21] = tested on: Hum63-M3 (DNA, G4) GGGTTAGGGTTAGGGTTAGGGTTGAGTGTGAGTGTAGGGTTAGGGTTAGGGTTAGGGTGTGAG; experiment: UV-vis absorption titration, Scatchard; settings: 150 mM KCl; 10 mM Tris-HCl pH 7.4, 1 mM Na2EDTA, 400 ml/l PEG 200; 3 μM compound; n = 0.50
[22] = tested on: Hum63 (DNA, G4) GGGTTAGGGTTAGGGTTAGGGTTAGGGTTAGGGTTAGGGTTAGGGTTAGGGTTAGGGTTAGGG; experiment: UV-vis absorption titration, Scatchard; settings: 150 mM KCl; 10 mM Tris-HCl pH 7.4, 1 mM Na2EDTA, 400 ml/l PEG 200; 3 μM compound; n = 0.52
[23] = tested on: Hum63 (DNA, G4) GGGTTAGGGTTAGGGTTAGGGTTAGGGTTAGGGTTAGGGTTAGGGTTAGGGTTAGGGTTAGGG; experiment: UV melting at 295 nm; settings: 50 mM KCl; 10 mM Tris-HCl pH 7.4, 1 mM Na2EDTA, no PEG; 5 μM compound, 5 μM DNA; derived from two Tm
[24] = tested on: Hum57-M2 (DNA, G4) GGGTTAGGGTTAGGGTTAGGGTTGAGTGTAGGGTTAGGGTTAGGGTTAGGGTGTGAG; experiment: UV-vis absorption titration, Scatchard; settings: 150 mM KCl; 10 mM Tris-HCl pH 7.4, 1 mM Na2EDTA, 400 ml/l PEG 200; 3 μM compound; n = 0.47
[25] = tested on: Hum57-M1 (DNA, G4) GGGTTAGGGTTAGGGTTAGGGTTAGGGTTAGGGTTAGGGTTAGGGTGTGAGTGTGAG; experiment: UV-vis absorption titration, Scatchard; settings: 150 mM KCl; 10 mM Tris-HCl pH 7.4, 1 mM Na2EDTA, 400 ml/l PEG 200; 3 μM compound; n = 0.48
[26] = tested on: C-MYC (DNA, G4) TGAGGGTGGGAGGGTGGGAA; experiment: UV-vis absorption; settings: 150 mM KCl; 10 mM Tris-HCl pH 7.4, 1 mM Na2EDTA, 400 ml/l PEG 200; DNA up to 10:1 over compound
[27] = tested on: ssDNA2 (DNA, single strand) TAGAGCACACCTGTCCGTG; experiment: UV-vis absorption; settings: 150 mM KCl; 10 mM Tris-HCl pH 7.4, 1 mM Na2EDTA, 400 ml/l PEG 200; 20 μM DNA
[28] = tested on: Hum51-M2 (DNA, G4) GGGTTAGGGTTAGGGTTAGGGTTGAGTGTAGGGTTAGGGTTAGGGTTAGGG; experiment: UV-vis absorption titration, Scatchard; settings: 150 mM KCl; 10 mM Tris-HCl pH 7.4, 1 mM Na2EDTA, 400 ml/l PEG 200; 3 μM compound; n = 0.46
[29] = tested on: Oxy28 (DNA, G4) GGGGTTTTGGGGTTTTGGGGTTTGGGG; experiment: UV-vis absorption; settings: 150 mM KCl; 10 mM Tris-HCl pH 7.4, 1 mM Na2EDTA, 400 ml/l PEG 200; DNA up to 10:1 over compound

binding [1]: no
melting temperature shift (ΔTm) [2]: 0.4 °C
melting temperature shift (ΔTm) [3]: 6.6 °C
Ka [4]: 1.11e+06 M⁻¹
binding [5]: no
Ka [6]: 1.66e+06 M⁻¹
binding [7]: no
melting temperature shift (ΔTm) [8]: 9.2 °C
binding [9]: no
binding [10]: no
Ka [11]: 2.05e+06 M⁻¹
Ka [12]: 1.05e+06 M⁻¹
binding [13]: no
binding [14]: no
Ka [15]: 1.09e+06 M⁻¹
Ka [16]: 2.08e+06 M⁻¹
melting temperature shift (ΔT1/2) [17]: 8.0 °C
Ka [18]: 1.08e+06 M⁻¹
Ka [19]: 1.1e+06 M⁻¹
melting temperature shift (ΔTm) [20]: 9.1 °C
Ka [21]: 1.08e+06 M⁻¹
Ka [22]: 2.53e+06 M⁻¹
melting temperature shift (ΔTm) [23]: 8.9 °C
Ka [24]: 1.38e+06 M⁻¹
Ka [25]: 1.3e+06 M⁻¹
binding [26]: no
binding [27]: no
Ka [28]: 1.1e+06 M⁻¹
binding [29]: no
Compound: C[N+]1(CCOc2cccc(-c3c4nc(c(-c5cccc(OCC[N+]6(C)CCCCC6)c5)c5ccc([nH]5)c(-c5cccc(OCC[N+]6(C)CCCCC6)c5)c5nc(c(-c6cccc(OCC[N+]7(C)CCCCC7)c6)c6ccc3[nH]6)C=C5)C=C4)c2)CCCCC1
